In publication PMC11178820, “Synthesis of novel aryl-substituted 2-aminopyridine derivatives by the cascade reaction of 1,1-enediamines with vinamidinium salts to develop novel anti-Alzheimer agents” (Scientific Reports, 2024):
Entries after “also recorded” stand apart in the source; their conditions may differ. Read-outs that look alike come from different tables or passages of the source.

How the values were obtained:
BChE [1] = target: T1, BChE (Homo sapiens, UniProt P06276); assay: BChE inhibition, modified Ellman method; format: biochemical; settings: for inhibition at 50 µM: read-out: BChE % inhibition at 50 µM; for BChE inhibition, outcome in words: 50 µM screening
T1 sequence (P06276 29-602, species assumed): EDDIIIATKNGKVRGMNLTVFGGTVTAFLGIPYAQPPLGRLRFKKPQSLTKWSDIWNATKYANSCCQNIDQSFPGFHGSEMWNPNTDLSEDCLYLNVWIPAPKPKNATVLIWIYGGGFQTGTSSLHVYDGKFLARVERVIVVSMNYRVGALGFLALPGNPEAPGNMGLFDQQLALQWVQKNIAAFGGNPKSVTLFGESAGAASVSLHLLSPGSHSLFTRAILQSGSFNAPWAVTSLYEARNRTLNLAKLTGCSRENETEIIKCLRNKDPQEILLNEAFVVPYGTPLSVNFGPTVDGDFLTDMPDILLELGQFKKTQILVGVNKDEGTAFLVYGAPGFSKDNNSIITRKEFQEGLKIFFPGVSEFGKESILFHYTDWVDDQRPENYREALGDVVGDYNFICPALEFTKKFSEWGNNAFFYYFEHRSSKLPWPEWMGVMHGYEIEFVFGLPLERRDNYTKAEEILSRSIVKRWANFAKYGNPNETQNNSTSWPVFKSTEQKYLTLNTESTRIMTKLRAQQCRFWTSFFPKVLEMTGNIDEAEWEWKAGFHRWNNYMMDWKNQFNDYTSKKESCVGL
Description: (§1) Cholinesterase inhibitory activities of all analogs were evaluated spectrometrically using the modified Ellman method as previously reported. […] The absorbance of each well was measured at 415 nm using a microplate reader. IC50 and inhibition values were calculated with the software GraphPad Prism as the mean of three independent experiments and expressed as mean ± SEM[42],[43].

AChE [2] = target: T2, AChE (Homo sapiens, UniProt P22303); assay: biochemical; settings: for inhibition at 50 µM: read-out: AChE % inhibition at 50 µM
T2 sequence (P22303 32-614): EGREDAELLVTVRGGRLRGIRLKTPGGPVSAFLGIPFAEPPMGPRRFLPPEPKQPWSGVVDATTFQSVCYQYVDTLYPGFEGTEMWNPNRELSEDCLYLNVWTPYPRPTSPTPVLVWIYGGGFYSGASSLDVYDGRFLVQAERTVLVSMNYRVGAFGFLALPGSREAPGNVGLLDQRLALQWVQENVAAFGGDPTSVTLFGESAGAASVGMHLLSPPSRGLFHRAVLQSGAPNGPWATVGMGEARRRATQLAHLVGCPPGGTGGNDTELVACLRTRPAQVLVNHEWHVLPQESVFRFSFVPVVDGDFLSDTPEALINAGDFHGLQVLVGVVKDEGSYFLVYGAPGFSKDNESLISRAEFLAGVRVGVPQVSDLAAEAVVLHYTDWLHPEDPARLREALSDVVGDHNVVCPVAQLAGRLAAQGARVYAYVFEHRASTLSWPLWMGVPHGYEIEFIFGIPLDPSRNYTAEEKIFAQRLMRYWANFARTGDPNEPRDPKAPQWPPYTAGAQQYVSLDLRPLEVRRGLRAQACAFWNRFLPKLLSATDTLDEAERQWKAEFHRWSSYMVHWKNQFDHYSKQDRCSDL
Description: as §1

AChE [3] = target: T2, AChE; assay: Enzyme kinetic study against AChE (Lineweaver–Burk); format: biochemical
Description: To investigate the type of inhibition of AChE and BChE, kinetic studies of 3m were conducted using various concentrations of ATCI or BTCI as a substrate.
(§2) A Lineweaver–Burk plot was generated to identify the type of inhibition and the Michaelis–Menten constant (Km) value was determined from plot between reciprocal of the substrate concentration (1/[S]) and reciprocal of enzyme rate (1/V) over the various inhibitor concentrations[44],[45].

BChE [4] = target: T1, BChE; assay: Enzyme kinetic study against BChE (Lineweaver–Burk); format: biochemical
Description: as §2

BChE [5] = target: T1, BChE; set-up: method as in doi:10.5530/ijper.52.4.75; settings: previously reported; unit inferred; cited from earlier work
AChE [6] = target: T2, AChE; set-up: method as in doi:10.5530/ijper.52.4.75; settings: previously reported; unit inferred; cited from earlier work
hAChE = tested on: hAChE; set-up: method as in PMID 23078965; settings: previously reported; cited from earlier work
hBChE = tested on: hBChE; set-up: method as in PMID 23078965; settings: previously reported; cited from earlier work

Row | SMILES | inhibition at 50 µM (BChE [1]; 50 µM, mean ± S.E) [%] | inhibition at 50 µM (AChE [2]; 50 µM, mean ± S.E) [%] | further results
1 | O=[N+]([O-])c1cc(-c2ccc(Br)cc2)cnc1Nc1ccc(Cl)cc1 [3k, 5-(4-Bromophenyl)-N-(4-chlorophenyl)-3-nitropyridin-2-amine] | 12.8 ± 1.7 | 27.8 ± 1.75 | –
2 | Cc1ccc(Nc2ncc(-c3ccc(F)cc3)cc2[N+](=O)[O-])cc1 [3d, 5-(4-Fluorophenyl)-3-nitro-N-(p-tolyl)pyridin-2-amine] | 46.4 ± 2.42 | 39.4 ± 1.56 | –
3 | Cc1ccccc1Nc1ncc(-c2ccc(Cl)cc2)cc1[N+](=O)[O-] [3h, 5-(4-Chlorophenyl)-3-nitro-N-(o-tolyl)pyridin-2-amine] | 14.6 ± 1.95 | 23.1 ± 8.61 | –
4 | Cc1ccc(Nc2ncc(-c3cccc4ccccc34)cc2[N+](=O)[O-])cc1 [3o, 5-(Naphthalen-1-yl)-3-nitro-N-(p-tolyl)pyridin-2-amine] | 22.8 ± 2.7 | 35.6 ± 4.63 | –
5 | O=[N+]([O-])c1cc(-c2ccc(Cl)cc2)cnc1Nc1cccc2ccccc12 [3i, 5-(4-Chlorophenyl)-N-(naphthalen-1-yl)-3-nitropyridin-2-amine] | 35.3 ± 5.14 | 39.7 ± 1.67 | –
6 | Cc1ccc(Nc2ncc(-c3ccc(Br)cc3)cc2[N+](=O)[O-])cc1 [3l, 5-(4-Bromophenyl)-3-nitro-N-(p-tolyl)pyridin-2-amine] | 6.96 ± 0.74 | 24.9 ± 5.01 | –
7 | CC(C)(C)c1cc[n+](-c2cnc(Nc3ccc(Cl)cc3)c([N+](=O)[O-])c2)cc1.[O-][Cl+3]([O-])([O-])[O-] [3m, 4-(Tert-butyl)-6ʹ-((4-chlorophenyl)amino)-5'-nitro-[1,3'-bipyridin]-1-ium perchlorate] | – | – | IC50 (BChE [1]): 20.7 ± 1.01 µM; selectivity ratio for BChE over AChE (BChE [1]): 1.686; inhibition at 50 µM (BChE [1]): 76.7 ± 6.01%; type of inhibition, AChE (AChE [3]; Lineweaver–Burk plot): mixed inhibition; also recorded: mix-type inhibition; Ki (AChE [3]; secondary plot of Lineweaver–Burk data, substrate ATCI, read-out: inhibition constant (Ki), AChE): 8.92 µM; type of inhibition, BChE (BChE [4]; Lineweaver–Burk plot): mixed type of inhibition; also recorded: mix-type inhibition; Kis, BChE (BChE [4]; plot of 1/Vmax vs inhibitor concentration, substrate BTCI): 46.27 µM; Ki (BChE [4]; plot of slope vs inhibitor concentration, substrate BTCI): 17.5 µM; IC50 (AChE [2]): 34.8 ± 3.71 µM; inhibition at 50 µM (AChE [2]): 74.3 ± 5.86%
8 | O=[N+]([O-])c1cc(-c2ccc(F)cc2)cnc1Nc1ccc(Cl)cc1 [3e, N-(4-Chlorophenyl)-5-(4-fluorophenyl)-3-nitropyridin-2-amine] | 19.6 ± 1.49 | 19.3 ± 3.3 | BChE inhibition, outcome in words (BChE [1]): almost inactive
9 | O=[N+]([O-])c1cc(-c2cccc3ccccc23)cnc1Nc1ccc(Cl)cc1 [3p, N-(4-Chlorophenyl)-5-(naphthalen-1-yl)-3-nitropyridin-2-amine] | 11.7 ± 0.12 | 21.4 ± 1.86 | –
10 | COc1ccc(Nc2ncc(-c3ccc(F)cc3)cc2[N+](=O)[O-])cc1 [3c, 5-(4-Fluorophenyl)-N-(4-methoxyphenyl)-3-nitropyridin-2-amine] | 3.4 ± 1.63 | 10.7 ± 2.31 | BChE inhibition, outcome in words (BChE [1]): almost inactive
11 | O=[N+]([O-])c1cc(-c2ccccc2)cnc1Nc1ccc(Cl)cc1 [3b, N-(4-Chlorophenyl)-3-nitro-5-phenylpyridin-2-amine] | 27.5 ± 1.92 | 59.9 ± 11 | –
12 | COc1ccc(Nc2ncc(-c3ccc(Br)cc3)cc2[N+](=O)[O-])cc1 [3j, 5-(4-Bromophenyl)-N-(4-methoxyphenyl)-3-nitropyridin-2-amine] | 46.1 ± 0.92 | 38.8 ± 3.27 | –
13 | O=[N+]([O-])c1cc(-c2ccc(Cl)cc2)cnc1Nc1ccc(Cl)cc1 [3g, N,5-Bis(4-chlorophenyl)-3-nitropyridin-2-amine] | 12.3 ± 0.99 | 17.8 ± 2.74 | –
14 | O=C(N/N=C(/c1ccc(O)cc1)c1cccc(O)c1)Nc1ccncc1 [B] | – | – | IC50 (BChE [5]): 6.44 ± 0.65 µM; IC50 (AChE [6]): 5.58 ± 0.016 µM
15 | Cc1ccccc1Nc1ncc(-c2cccc3ccccc23)cc1[N+](=O)[O-] [3n, 5-(Naphthalen-1-yl)-3-nitro-N-(o-tolyl)pyridin-2-amine] | 38.9 ± 2.97 | 40.7 ± 2.6 | –
16 | COc1ccc(Nc2ncc(-c3ccc(Cl)cc3)cc2[N+](=O)[O-])cc1 [3f, 5-(4-Chlorophenyl)-N-(4-methoxyphenyl)-3-nitropyridin-2-amine] | 31.7 ± 1.1 | 33 ± 1.86 | –
17 | N#Cc1cc(C#N)c(NCCCC2CCN(Cc3ccccc3)CC2)nc1N [A] | – | – | IC50 (hAChE): 0.0094 ± 0.0004 µM; selectivity against hAChE than hBChE (hAChE): 703 fold; IC50 (hBChE): 6.6 ± 0.7 µM
18 | COc1ccc(Nc2ncc(-c3ccccc3)cc2[N+](=O)[O-])cc1 [3a, N-(4-Methoxyphenyl)-3-nitro-5-phenylpyridin-2-amine] | 22.1 ± 0.33 | 28.1 ± 3.93 | –
19 | O=[N+]([O-])c1cc(-c2cccc3ccccc23)cnc1Nc1cccc2ccccc12 [3q, N,5-Di(naphthalen-1-yl)-3-nitropyridin-2-amine] | 53.07 ± 0.42 | 34 ± 2.39 | –
